Broadly, the IC50 is the concentration that gives 50% inhibition.

The assay addresses T1, HCV polymerase (Hepatitis C virus genotype 1b, UniProt P26663).
T1 construct: a region encoding NS5B (591 amino acids; J Virol 1991 Mar, 65(3), 1105-13) was amplified by PCR; 6 His (N); made in house; host or cells: Escherichia coli
In words: biochemical.

The mark [1] stands for this setting: read-out: HCV polymerase inhibitory activity IC50.

Structures can show the parent of a compound that is named as a salt. Where two headings read alike, the source gives them in different places.

T1 sequence (P26663 2420-3010): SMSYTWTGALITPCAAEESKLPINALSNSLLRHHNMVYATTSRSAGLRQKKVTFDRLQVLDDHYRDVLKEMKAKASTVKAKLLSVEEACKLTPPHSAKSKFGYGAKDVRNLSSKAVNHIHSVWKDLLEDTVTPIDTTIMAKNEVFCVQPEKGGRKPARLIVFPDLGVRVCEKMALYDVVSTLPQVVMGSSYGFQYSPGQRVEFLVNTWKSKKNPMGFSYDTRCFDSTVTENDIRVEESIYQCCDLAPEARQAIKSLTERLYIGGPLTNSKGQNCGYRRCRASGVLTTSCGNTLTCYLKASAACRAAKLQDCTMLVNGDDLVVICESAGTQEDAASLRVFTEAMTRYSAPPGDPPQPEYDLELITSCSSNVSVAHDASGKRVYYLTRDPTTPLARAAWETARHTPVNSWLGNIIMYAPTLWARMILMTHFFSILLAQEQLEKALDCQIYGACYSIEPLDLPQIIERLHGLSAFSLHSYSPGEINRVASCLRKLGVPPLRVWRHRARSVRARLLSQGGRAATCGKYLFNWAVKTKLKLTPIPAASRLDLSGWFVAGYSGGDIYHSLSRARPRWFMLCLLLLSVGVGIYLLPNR

As to `CN(C)C(=O)c1ccc(-c2ccc(Cl)cc2)c(COc2ccc(-c3nc4cc(C(=O)O)ccc4n3C3CCCCC3)c(F)c2)c1` [Example 269, 2-{4-[2-(4-chlorophenyl)-5-dimethylcarbamoylbenzyloxy]-2-fluorophenyl}-1-cyclohexylbenzimidazole-5-carboxylic acid hydrochloride], the IC50 under setting [1] was 13 nM.
For `COCc1ccc(-c2ccc(Cl)cc2COc2ccc(-c3nc4cc(C(=O)O)ccc4n3C3CCCCC3)cc2)cc1` [Example 295, 2-{4-[3-chloro-6-(4-methoxymethylphenyl)benzyloxy]phenyl}-1-cyclohexylbenzimidazole-5-carboxylic acid], the IC50 under setting [1] worked out at 45 nM.
With `CC(C)NC(=O)c1ccc(-c2ccc(Cl)cc2)c(COc2ccc(-c3nc4cc(C(=O)O)ccc4n3C3CCSCC3)c(F)c2)c1` [Example 418, 2-{4-[2-(4-chlorophenyl)-5-(isopropylcarbamoyl)benzyloxy]-2-fluorophenyl}-1-(tetrahydrothiopyran-4-yl)benzimidazole-5-carboxylic acid hydrochloride], the IC50 under setting [1] was determined as 16 nM.
Consider `O=C(O)c1ccc2c(c1)nc(-c1ccc(Oc3ccccc3OCCc3ccccc3)cc1)n2C1CCCCC1` [Example 123, 1-cyclohexyl-2-[4-(2-phenethyloxyphenoxy)phenyl]benzimidazole-5-carboxylic acid], for which the IC50 under setting [1] worked out at 100 nM.
Regarding `CC(C)NC(=O)c1ccc(-c2ccc(Cl)cc2)c(COc2ccc(-c3nc4cc(C(=O)O)ccc4n3C3CCCC3)cc2)c1` [Example 413, 2-{4-[2-(4-chlorophenyl)-5-(isopropylcarbamoyl)benzyloxy]phenyl}-1-cyclopentylbenzimidazole-5-carboxylic acid hydrochloride], the IC50 under setting [1] was found to be 26 nM.
As for `Cc1nc(-c2ccc(-c3ccc(Cl)cc3)c(COc3ccc(-c4nc5cc(C(=O)O)ccc5n4C4CCCCC4)cc3)c2)cs1` [Example 347, 2-{4-[2-(4-chlorophenyl)-5-(2-methylthiazol-4-yl)benzyloxy]-phenyl}-1-cyclohexylbenzimidazole-5-carboxylic acid], under setting [1], the IC50 worked out at 22 nM.
For the compound `O=C(O)c1ccc2c(c1)nc(-c1ccc(Oc3cccc(OCC4CCNCC4)c3)cc1)n2C1CCCCC1` [Example 161, 1-cyclohexyl-2-{4-[3-(4-piperidylmethoxy)phenoxy]phenyl}-benzimidazole-5-carboxylic acid hydrochloride], the IC50 under setting [1] stood at 62 nM.
For the setting “HCV polymerase inhibitory activity IC50”, `CN(C)C(=O)c1ccc(-c2ccc(Cl)cc2)c(COc2ccc(-c3nc4cc(C(=O)O)ccc4n3C3CCCCC3)cc2)c1` [Example 265, 2-{4-[2-(4-chlorophenyl)-5-dimethylcarbamoylbenzyloxy]phenyl}-1-cyclohexylbenzimidazole-5-carboxylic acid hydrochloride] registered an IC50 of 14 nM.
In the case of `CCCOc1ccccc1Oc1ccc(-c2nc3cc(C(=O)O)ccc3n2C2CCCCC2)cc1` [Example 110, 1-cyclohexyl-2-[4-(2-propoxyphenoxy)phenyl]benzimidazole-5-carboxylic acid], the 50% inhibitory concentration (IC50) under setting [1] turned out to be 240 nM.
In the case of `O=C(O)CCc1ccc(-c2ccc(Cl)cc2COc2ccc(-c3nc4cc(C(=O)O)ccc4n3C3CCCCC3)cc2)cc1` [Example 293, 2-{4-[2-{4-(2-carboxyethyl)phenyl}-5-chlorobenzyloxy]phenyl}-1-cyclohexylbenzimidazole-5-carboxylic acid], under setting [1], the IC50 is 34 nM.
Turning to `CC(C)=CCOc1ccccc1Oc1ccc(-c2nc3cc(C(=O)O)ccc3n2C2CCCCC2)cc1` [Example 112, 1-cyclohexyl-2-{4-[2-(3-methyl-2-butenyloxy)phenoxy]phenyl}-benzimidazole-5-carboxylic acid], the IC50 under setting [1] came to 110 nM.
Regarding `CN(C)C(=O)c1ccc(-c2ccc(Cl)s2)c(COc2ccc(-c3nc4cc(C(=O)O)ccc4n3C3CCCCC3)cc2)c1` [Example 362, 2-{4-[2-(5-chlorothiophen-2-yl)-5-(dimethylcarbamoyl)benzyloxy]-phenyl}-1-cyclohexylbenzimidazole-5-carboxylic acid hydrochloride], the IC50 under setting [1] is 20 nM.
On to `COc1cccc(CCOc2ccc(-c3nc4cc(C(=O)O)ccc4n3C3CCCCC3)cc2)c1` [Example 121, 1-cyclohexyl-2-{4-[2-(3-methoxyphenyl)ethoxy]phenyl}-benzimidazole-5-carboxylic acid], for which the IC50 under setting [1] turned out to be 190 nM.
In the case of `O=C(O)c1ccc2c(c1)nc(-c1ccc(Oc3cccc(OCc4ccc(F)cc4)c3)cc1)n2C1CCCCC1` [Example 202, 1-cyclohexyl-2-{4-[3-(4-fluorobenzyloxy)phenoxy]phenyl}-benzimidazole-5-carboxylic acid], the IC50 under setting [1] amounted to 95 nM.
Regarding `CCN(CC)C(=O)c1ccc(-c2ccc(Cl)cc2)c(COc2ccc(-c3nc4cc(C(=O)O)ccc4n3C3CCCCC3)c(F)c2)c1` [Example 284, 2-{4-[2-(4-chlorophenyl)-5-diethylcarbamoylbenzyloxy]-2-fluorophenyl}-1-cyclohexylbenzimidazole-5-carboxylic acid], under setting [1], the IC50 was 14 nM.
With `O=C(O)c1ccc(-c2ccc(Cl)cc2)c(COc2ccc(-c3nc4cc(C(=O)O)ccc4n3C3CCCCC3)cc2)c1` [Example 189, 2-{4-[3-carboxy-6-(4-chlorophenyl)benzyloxy]phenyl}-1-cyclohexylbenzimidazole-5-carboxylic acid], the IC50 under setting [1] was found to be 17 nM.
For `CCCN(c1ccc(-c2ccc(Cl)cc2)c(COc2ccc(-c3nc4cc(C(=O)O)ccc4n3C3CCCCC3)c(F)c2)c1)S(C)(=O)=O` [Example 462, 2-[4-{2-(4-chlorophenyl)-5-[N-(methylsulfonyl)-N-propylamino]benzyloxy}-2-fluorophenyl]-1-cyclohexylbenzimidazole-5-carboxylic acid hydrochloride], the IC50 under setting [1] was 28 nM.
As for `O=C(O)c1ccc2c(c1)nc(-c1ccc(OCc3cc(C4=NOS(=O)N4)ccc3-c3ccc(Cl)cc3)cc1F)n2C1CCCCC1` (stereo not shown) [Example 375, 2-{4-[2-(4-chlorophenyl)-5-(2-oxo-3H-1,2,3,5-oxathiadiazol-4-yl)benzyloxy]-2-fluorophenyl}-1-cyclohexylbenzimidazole-5carboxylic acid hydrochloride], under setting [1], the IC50 was 12 nM.
Still for that read-out and setting: for `O=C(O)c1ccc2c(c1)nc(-c1ccc(OCCCCCc3ccccc3)cc1)n2C1CCCCC1` [Example 98, 1-cyclohexyl-2-[4-(5-phenylpentyloxy)phenyl]benzimidazole-5-carboxylic acid] the value was 300 nM; for `O=C(O)c1ccc2c(c1)nc(-c1ccc(Oc3ccc(OCc4ccccc4)cc3)c(F)c1)n2C1CCCCC1` [Example 172, 2-[4-(4-benzyloxyphenoxy)-3-fluorophenyl]-1-cyclohexylbenzimidazole-5-carboxylic acid], 100 nM; for `O=C(O)c1ccc2c(c1)nc(-c1ccc(OCc3ccc(C(=O)N4CCC(O)CC4)cc3-c3ccc(Cl)cc3)cc1)n2C1CCCCC1` [Example 354, 2-{4-[2-(4-chlorophenyl)-4-(4-hydroxypiperidin-1-ylcarbonyl)benzyloxy]phenyl}-1-cyclohexylbenzimidazole-5-carboxylic acid hydrochloride], 13 nM.
For the compound `CC(C)NC(=O)c1cc(COc2ccc(-c3nc4cc(C(=O)O)ccc4n3C3CCCCC3)c(F)c2)c(-c2ccc(F)cc2)s1` [Example 432, 2-{4-[{2-(4-fluorophenyl)-5-(isopropylcarbamoyl)thiophen-3-yl}methoxy]-2-fluorophenyl}-1-cyclohexylbenzimidazole-5-carboxylic acid hydrochloride], under setting [1], the IC50 is 22 nM.

These data come from patent US20040082635A1, “Fused cyclic compounds and medicinal use thereof” (priority 2001, published 2004).
